The target in one assay is Histone deacetylase 4 (Homo sapiens, UniProt P56524). The experiment in a line: Inhibition of human HDAC4 using fluorogenic HDAC substrate.
For a further assay, the target named is Histone deacetylase 9 (Homo sapiens, UniProt Q9UKV0). The assay can be described thus: Inhibition of human HDAC9 using fluorogenic HDAC substrate.
The target in assay [1] is T1, Polyamine deacetylase HDAC10 (Homo sapiens, UniProt Q969S8).
T1 sequence (Q969S8 whole entry): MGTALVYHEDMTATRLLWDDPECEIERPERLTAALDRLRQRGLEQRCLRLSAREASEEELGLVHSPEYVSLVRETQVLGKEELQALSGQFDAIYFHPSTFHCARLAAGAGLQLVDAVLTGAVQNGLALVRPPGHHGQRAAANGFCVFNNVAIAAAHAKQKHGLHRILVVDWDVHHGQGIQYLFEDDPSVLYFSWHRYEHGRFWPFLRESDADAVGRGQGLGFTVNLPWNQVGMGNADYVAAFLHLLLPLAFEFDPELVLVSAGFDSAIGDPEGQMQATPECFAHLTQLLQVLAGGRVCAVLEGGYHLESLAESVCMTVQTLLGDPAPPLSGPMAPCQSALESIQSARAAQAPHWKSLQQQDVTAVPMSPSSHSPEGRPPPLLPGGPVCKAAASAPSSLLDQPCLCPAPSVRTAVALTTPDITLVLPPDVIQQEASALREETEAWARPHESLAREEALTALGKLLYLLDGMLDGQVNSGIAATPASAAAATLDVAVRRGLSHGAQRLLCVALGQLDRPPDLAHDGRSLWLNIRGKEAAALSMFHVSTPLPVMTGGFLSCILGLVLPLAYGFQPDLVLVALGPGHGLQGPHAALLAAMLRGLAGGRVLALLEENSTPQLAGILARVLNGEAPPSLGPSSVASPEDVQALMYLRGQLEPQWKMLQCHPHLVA
The experiment in a line: Inhibition of human HDAC10 using fluorogenic HDAC substrate.

The target in another assay is Histone deacetylase 5 (Homo sapiens, UniProt Q9UQL6). The assay can be described thus: Inhibition of human HDAC5 using fluorogenic HDAC substrate.
Sequence of Histone deacetylase 5 (Q9UQL6 whole entry): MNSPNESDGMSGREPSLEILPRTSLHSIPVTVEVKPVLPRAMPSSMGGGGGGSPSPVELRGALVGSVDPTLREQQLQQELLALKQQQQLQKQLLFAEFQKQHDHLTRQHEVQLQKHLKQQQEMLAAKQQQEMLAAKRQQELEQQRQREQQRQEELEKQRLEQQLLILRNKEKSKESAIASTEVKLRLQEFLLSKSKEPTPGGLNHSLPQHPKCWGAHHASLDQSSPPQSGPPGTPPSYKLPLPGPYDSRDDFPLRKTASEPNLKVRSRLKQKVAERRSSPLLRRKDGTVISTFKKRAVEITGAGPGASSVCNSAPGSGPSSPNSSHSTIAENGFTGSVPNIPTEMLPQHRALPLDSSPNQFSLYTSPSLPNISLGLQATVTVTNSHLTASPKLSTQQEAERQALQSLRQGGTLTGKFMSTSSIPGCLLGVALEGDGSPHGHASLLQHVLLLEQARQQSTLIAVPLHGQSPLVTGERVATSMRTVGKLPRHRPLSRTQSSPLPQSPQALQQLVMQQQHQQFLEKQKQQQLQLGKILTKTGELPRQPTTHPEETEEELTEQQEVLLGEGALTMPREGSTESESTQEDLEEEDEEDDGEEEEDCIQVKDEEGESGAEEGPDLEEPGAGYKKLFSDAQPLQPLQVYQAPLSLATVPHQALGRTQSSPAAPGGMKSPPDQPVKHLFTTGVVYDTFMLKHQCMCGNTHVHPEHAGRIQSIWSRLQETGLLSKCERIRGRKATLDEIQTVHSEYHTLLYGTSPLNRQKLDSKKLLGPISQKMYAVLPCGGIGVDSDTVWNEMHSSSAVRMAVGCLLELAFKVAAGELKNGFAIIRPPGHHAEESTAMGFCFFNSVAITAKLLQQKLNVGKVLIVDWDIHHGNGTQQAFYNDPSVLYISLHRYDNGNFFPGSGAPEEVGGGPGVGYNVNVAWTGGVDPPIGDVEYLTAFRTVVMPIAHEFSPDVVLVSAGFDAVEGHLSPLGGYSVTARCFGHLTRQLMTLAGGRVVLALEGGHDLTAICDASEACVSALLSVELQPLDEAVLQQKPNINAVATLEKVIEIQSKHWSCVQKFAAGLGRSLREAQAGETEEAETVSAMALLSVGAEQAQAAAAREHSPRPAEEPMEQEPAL

The structures appear in SMILES notation. pIC50: −log10 of the molar value.

A word on the pIC50: it is the negative decadic logarithm of the IC50, by convention in mol/L. Lower therefore signals a large IC50.

Sequence of Histone deacetylase 4 (P56524 whole entry): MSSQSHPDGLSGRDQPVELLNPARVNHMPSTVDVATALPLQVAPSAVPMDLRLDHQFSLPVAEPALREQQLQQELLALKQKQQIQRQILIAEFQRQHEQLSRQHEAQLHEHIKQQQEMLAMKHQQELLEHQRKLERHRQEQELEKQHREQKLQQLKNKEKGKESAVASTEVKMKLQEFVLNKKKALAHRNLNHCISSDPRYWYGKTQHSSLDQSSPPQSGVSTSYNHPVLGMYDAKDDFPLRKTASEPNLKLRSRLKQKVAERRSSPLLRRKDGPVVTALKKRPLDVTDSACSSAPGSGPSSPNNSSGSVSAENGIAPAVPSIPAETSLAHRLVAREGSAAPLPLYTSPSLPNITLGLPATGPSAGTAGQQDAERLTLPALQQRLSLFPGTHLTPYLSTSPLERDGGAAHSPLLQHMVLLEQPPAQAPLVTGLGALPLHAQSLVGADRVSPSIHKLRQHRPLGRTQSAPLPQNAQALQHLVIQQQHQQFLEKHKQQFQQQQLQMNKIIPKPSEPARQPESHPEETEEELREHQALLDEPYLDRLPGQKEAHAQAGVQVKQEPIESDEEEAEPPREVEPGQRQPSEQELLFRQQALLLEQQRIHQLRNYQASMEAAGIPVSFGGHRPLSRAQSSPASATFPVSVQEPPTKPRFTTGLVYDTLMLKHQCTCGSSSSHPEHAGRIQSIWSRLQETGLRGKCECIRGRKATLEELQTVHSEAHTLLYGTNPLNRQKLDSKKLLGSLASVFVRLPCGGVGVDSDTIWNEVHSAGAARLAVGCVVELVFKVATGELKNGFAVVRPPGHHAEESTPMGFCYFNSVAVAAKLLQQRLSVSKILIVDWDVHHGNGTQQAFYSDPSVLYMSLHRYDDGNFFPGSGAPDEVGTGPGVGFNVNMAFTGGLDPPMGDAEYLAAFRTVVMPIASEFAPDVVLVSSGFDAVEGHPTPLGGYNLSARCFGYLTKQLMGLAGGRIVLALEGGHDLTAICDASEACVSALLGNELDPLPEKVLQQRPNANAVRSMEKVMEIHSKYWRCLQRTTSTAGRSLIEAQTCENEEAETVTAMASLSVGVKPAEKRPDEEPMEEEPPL
Sequence of Histone deacetylase 9 (Q9UKV0 whole entry): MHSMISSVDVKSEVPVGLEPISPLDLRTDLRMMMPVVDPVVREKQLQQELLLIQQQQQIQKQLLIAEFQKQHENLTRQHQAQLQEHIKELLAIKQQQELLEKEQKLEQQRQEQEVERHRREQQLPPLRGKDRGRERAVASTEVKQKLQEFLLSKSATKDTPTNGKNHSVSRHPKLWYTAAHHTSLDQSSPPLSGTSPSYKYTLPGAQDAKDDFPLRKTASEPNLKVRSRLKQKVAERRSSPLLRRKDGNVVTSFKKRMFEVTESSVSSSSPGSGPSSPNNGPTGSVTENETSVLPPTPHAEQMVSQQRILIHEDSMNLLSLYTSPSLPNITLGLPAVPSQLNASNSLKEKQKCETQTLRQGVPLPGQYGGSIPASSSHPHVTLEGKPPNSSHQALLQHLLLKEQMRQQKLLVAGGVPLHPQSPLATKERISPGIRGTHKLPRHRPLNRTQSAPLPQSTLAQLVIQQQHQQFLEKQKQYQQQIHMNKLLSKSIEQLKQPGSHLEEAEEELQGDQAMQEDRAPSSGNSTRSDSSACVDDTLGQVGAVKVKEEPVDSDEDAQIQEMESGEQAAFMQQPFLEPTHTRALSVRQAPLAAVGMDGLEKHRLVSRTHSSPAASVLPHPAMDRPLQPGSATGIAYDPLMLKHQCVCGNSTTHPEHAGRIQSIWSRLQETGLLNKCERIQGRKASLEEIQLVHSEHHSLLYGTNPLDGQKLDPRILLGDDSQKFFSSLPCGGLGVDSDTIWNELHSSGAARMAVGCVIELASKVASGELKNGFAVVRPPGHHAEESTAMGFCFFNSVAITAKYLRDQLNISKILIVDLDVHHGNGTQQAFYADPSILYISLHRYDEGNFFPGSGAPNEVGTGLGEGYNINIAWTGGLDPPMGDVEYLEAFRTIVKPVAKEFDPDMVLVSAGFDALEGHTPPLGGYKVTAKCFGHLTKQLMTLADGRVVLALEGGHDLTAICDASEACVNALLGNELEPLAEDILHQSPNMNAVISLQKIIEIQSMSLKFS

As for `O=C(NO)c1ccc(CN2c3ccccc3CC[C@@H]3CCCC[C@H]32)cc1`, the pIC50 against Histone deacetylase 4 was less than 4.52; at Histone deacetylase 9, 5.05; in assay [1] it was 4.85; at Histone deacetylase 5, 4.92.

Values taken from ChEMBL document CHEMBL4422610, “HDAC as onco target: Reviewing the synthetic approaches with SAR study of their inhibitors” (Eur J Med Chem, 2018).
